Patent US11419855B2, “Pharmaceutical preparation” (KOWA COMPANY, LTD., priority 2017, dated 2022)

Legend:
[1] = Hygroscopic property evaluation of pemafibrate crystal (Karl Fischer moisture content); assay type: physicochemical
Experimental: A pemafibrate crystal was produced by recrystallizing pemafibrate from an ethyl acetate/heptane mixture in accordance with the method for producing a pemafibrate crystal as described in Non-Patent Document 1.
250 mg of the pemafibrate crystal was placed in a dish, and stored in an uncapped state (open state) in a dark place at 25° C. and 83% relative humidity (RH) for 3 months. The hygroscopic property was evaluated by measuring the moisture contents before and after the storage. The measurement of the moisture content was performed by a coulometric titration method in accordance with The Japanese Pharmacopoeia, 17th Edition, Moisture Content Measurement Method (Karl Fischer Method).

[2] = Examination of stability of pemafibrate, stored alone in open state in dish (HPLC related substances); assay type: physicochemical
Experimental: 250 mg of pemafibrate was placed in a dish, and stored in an uncapped state (open state) in a dark place at 40° C. and 75% relative humidity (RH) for 3 months.
The amounts of pemafibrate-derived decomposition products (related substances) before the start of storage and after storage at 40° C. and 75% RH for 3 months were evaluated through the following method.
The sum of related substance-derived peak areas was evaluated in terms of a ratio (%) to the pemafibrate-derived peak area using an HPLC apparatus, and the ratio was defined as the “Total amount (%) of related substances”.

Structure (SMILES) | Moisture content (%), before storage ([1]; before storage, Karl Fischer coulometric titration) [%] | Moisture content (%), after storage at 25° C. and 83% RH for 3 months ([1]; open state in dish, dark place, 25° C., 83% RH, 3 months) [%] | Hygroscopic property ([1]; storage at 83% RH for 3 months, in words) | Stability at high humidity ([2]; 75% RH, storage for 3 months, in words) | Total amount (%) of related substances, before storage ([2]; before storage, HPLC ratio of related substance peak areas to pemafibrate peak area) [%] | Total amount (%) of related substances, after storage at 40° C. and 75% RH for 3 months ([2]; open state in dish, dark place, 40° C., 75% RH, 3 months) [%]
CC[C@@H](Oc1cccc(CN(CCCOc2ccc(OC)cc2)c2nc3ccccc3o2)c1)C(=O)O [Pemafibrate crystal, (2R)-2-[3-([1,3-Benzoxazol-2-yl[3-(4-methoxyphenoxy)propyl]amino]methyl)phenoxy]butanoic acid] | <0.1 | <0.1 | not hygroscopic |  |  | 
CC[C@@H](Oc1cccc(CN(CCCOc2ccc(OC)cc2)c2nc3ccccc3o2)c1)C(=O)O [Pemafibrate, (2R)-2-[3-([1,3-Benzoxazol-2-yl[3-(4-methoxyphenoxy)propyl]amino]methyl)phenoxy]butanoic acid] |  |  |  | stable | <0.05 | <0.05
